The source of these data is patent US20250288599A1, “PHARMACEUTICAL COMPOSITIONS AND METHODS FOR TREATING OSTEOARTHRITIS” (INSIGNIA PHARMACEUTICALS, LLC, priority 2024, published 2025).

Where two headings read alike, the source gives them in different places.

Data set [1] relates to PGE2 release from normal human chondrocytes. Kind of data set: IL-1β-induced PGE2 release from normal human chondrocyte monolayers, 48 h, competitive EIA. In kind it is cell-based. As to the method: Mechanical stress and inflammation are thought to sustain catabolic cycles of extracellular matrix deterioration during osteoarthritis. In particular, PGE2 correlates with increased protease production and discomfort or pain in osteoarthritis.
After 48-hours, PGE2 release was evaluated by competitive EIA, and relative potency was calculated versus dose responses of Dex alone.
After 48 hours, PGE2 release was evaluated by competitive enzyme immunoassay (EIA), and relative potency was calculated versus Dex alone.
Lac is commonly thought to be simply an end-product of anaerobic glycolysis; however, it may also have immunomodulatory effects and promote protein modifications that alter gene expression. The goal of this experiment was to determine how Lac supplementation affects early-phase, inflammatory, and late-stage redifferentiation in chondrocyte models. To establish how Lac may influence inflammation early in osteoarthritis, monolayers of normal human chondrocytes were exposed to Lac dose responses of up to 100 millimolar, concurrently with 0.5 nanograms per milliliter IL-1β for 48 hours. The release of PGE2 was then quantified using competitive EIA. To investigate how Lac affects transcriptional programs in dedifferentiated osteoarthritic chondrocytes, monolayer cultures and micromass pellets were treated for 14 days with 100 millimolar final concentrations of Lac, with and without 10 nanograms per milliliter transforming growth factor beta 3 (TGF-β3). Total RNA was then isolated, and relative expression of SOX9 or Col2a1 was calculated using qRT-PCR, normalized to GAPDH.

The test system is the same in data set [2]. Kind of data set: IL-1β-induced PGE2 release from normal human chondrocytes, 24 h, DA vs decanoate working solutions. In kind it is cell-based. To be noted: Homo sapiens, Chondrocyte, 25 micromolar, prepared in medium. As to the method:
The activity of DA working solutions prepared in either saline or lactated ringer's (LR) isotonic solutions was assessed. […] In addition, concentrated decanoate working solutions in saline or LR were prepared and added to the cultures at a final concentration of 25 micromolar. PGE2 release was then compared to matching points on the DA or decanoate medium as well as saline and LR controls.

For data set [3], the system named is MCP1 in osteoarthritic human synoviocytes. Kind of data set: IL-1β-induced MCP1 in osteoarthritic-synoviocytes. In kind it is cell-based. Conditions: IL-1β 0.5 ng/mL; 0.5, 0.8 or 1 millimolar DA; 0.1-100 nanomolar Dex.
The test system of data set [4] is PGE2 release from osteoarthritic human synoviocytes. Description: IL-1β-induced PGE2 and PGD2 release from osteoarthritic-synoviocytes. The class given is cell-based. Conditions: for IC50: Homo sapiens, read-out: IC50 for PGE2 inhibition.
For data set [5], the system named is IL-1β release from human THP1 macrophages. Description: Two-hit (LPS then ATP) inflammasome activation model, IL-1β release from THP1 macrophages. The class given is cell-based. To be noted: for IC50: Homo sapiens. From the text: The proinflammatory cytokine, IL-1β, is released from cells upon activation of the inflammasome, a multi-protein proinflammatory complex. A two-hit model of inflammasome activation in THP1 macrophages was developed that entails an overnight stimulation with LPS followed by a second proinflammatory stimulus, extracellular ATP, which drives inflammasome assembly and subsequent IL-1β release from the cells into the media.

For data set [6], the system named is SOX9 expression in human osteoarthritic chondrocytes. Description: SOX9 relative expression in high and low passage osteoarthritic chondrocytes, 7, 14 or 28 days. The class given is cell-based. Conditions: high passage, dedifferentiated osteoarthritic chondrocytes with TGF-β3, 14 days. The source says: Media was exchanged bi-weekly. […] SOX9 is a transcription factor vital to the development and maintenance of cartilage and is required for chondrogenesis. SOX9 promotes chondrocyte survival and transcriptionally activates cartilage-specific genes. SOX9 is repressed in hypertrophic chondrocytes (i.e. terminally differentiated osteoblast-like cells).

In data set [7] the test system is prostaglandin I2 (PGI2) in primary human synoviocytes. Kind of data set: PGI2 in IL-1β-stimulated primary human osteoarthritic synoviocytes, 24 h. The class given is cell-based. To be noted: IL-1β 1 ng/ml. As to the method: FIG. 25 is a bar graph that depicts the concentration of prostaglandin I2 (PGI2) present in primary human synoviocytes from patients with osteoarthritis that were stimulated with 1 ng/ml final concentration of IL-1β for 24 hours in the presence of varying concentrations of DA and Dex in view of controls. PGI2 concentration response mirrored PGE2 concentrations after DA treatment. […] It is noted that prostaglandin H2 (PGH2) was also tested and was not detected in either cell culture media or from cell lysates. Without being bound by theory, it is believed that PGH2 is an intermediate and is (near) immediately converted into downstream prostaglandins and therefore levels of PGH2 are not detectable.

The target in data set [8] is Cyclooxygenase-2 (COX-2) (Homo sapiens, UniProt P35354). Kind of data set: COX-2 inhibitor screen. Conditions: any of the concentrations tested; Celecoxib positive control. In kind it is biochemical.
Source text: Celecoxib (Celebrex) was used as a positive control for COX-2.
The target of data set [9] is PLA2 isolated from bee venom (Apis mellifera, UniProt P00630). The class given is biochemical.
The subject of data set [10] is PGE2 in primary human osteoarthritic synoviocytes. Description: Early, pretreatment and intracellular vs secreted PGE2 in IL-1β-stimulated human osteoarthritic synoviocytes. In kind it is cell-based. As to the method:
The concentrations in FIG. 31A were measured at hour three.
Cells were also treated with IL-IRA which inhibits IL-1β by binding the cell-surface […] and inhibiting its dimerization with the IL-1 receptor (IL-1R), effectively blocking IL-1β signaling.
FIG. 33 illustrates two bar graphs that depict the concentrations of PGE2 inside of the cell versus PGE2 that was secreted into the cell culture media. Specifically, the bar graph labeled “Intracellular” illustrates the concentrations of PGE2 inside of the cell and the bar graph labeled “Supernatent” illustrates the concentration of PGE2 that was secreted into the cell culture media. Synoviocytes were stimulated with IL-1β for 6 hours and then cell culture media harvested separately along with collecting cell lysates. […] To test this, the PGE2 concentrations inside of the cells and in the cell culture media were measured to compare them directly to each other.

Data set [11] relates to arachidonic acid (AA) in primary human synoviocytes. Kind of data set: Early arachidonic acid in IL-1β-stimulated primary human osteoarthritic synoviocytes, 3 h. The class given is cell-based. To be noted: IL-1β 1 ng/mL. On the procedure: Early concentrations of arachidonic acid (AA) present in primary human synoviocytes from patients with osteoarthritis that were stimulated with 1 ng/mL final concentration interleukin 1-beta (β) for 3 hours in the presence of varying concentrations of Dex and DA in view of controls are depicted in FIG. 32. The concentrations of AA in FIG. 32 were normalized to total protein content from the cell lysates using bicinchoninic acid (BCA).

For data set [12], the system named is Col2a1 expression in dedifferentiated osteoarthritic chondrocytes. Kind of data set: Col2a1 relative expression in high passage osteoarthritic chondrocyte monolayer model with TGF-β. The class given is cell-based, human. Conditions: TGF-β added to the model; 1 mM Try, 0.5 mM DA. On the procedure:
(§1) These compounds were tested in a high passage osteoarthritic chondrocyte monolayer model, alone or in combination with other agents, for both transcriptional regulation of standard markers and IL-1β-induced PGE2 production.

In data set [13] the test system is MMP13 expression in dedifferentiated osteoarthritic chondrocytes. Kind of data set: MMP13 regulation in high passage osteoarthritic chondrocyte monolayer model, 28 days. The class given is cell-based, human. Conditions: 28 days of treatment; 1 mM Try, 0.5 mM DA. As to the method: as §1
For data set [14] the following is noted: cited from earlier work.
In data set [15] the test system is MMP13 expression in human osteoarthritic chondrocytes. Description: MMP13 relative expression in human osteoarthritic chondrocytes treated with DA and/or Try. In kind it is cell-based. Conditions: 28-day monolayer culture; 0.5 mM DA, 1 mM Try.
Procedure: (§2) Total mRNA was then isolated at the indicated times, and qRTPCR was performed with primers specific for MMP13, Col2a1, and the housekeeping gene GAPDH. Relative expression was then calculated versus controls, with normalization to GAPDH.
For data set [16], the system named is Col2a1 expression in human osteoarthritic chondrocytes. Description: Col2a1 relative expression in human osteoarthritic chondrocytes treated with DA and/or Try with TGF-β3. The class given is cell-based. Conditions: 14-day monolayer culture with TGF-β3; 0.5 mM DA, 1 mM Try.
Procedure: as §2

Chain of Cyclooxygenase-2 (COX-2) (P35354 18-604, species assumed): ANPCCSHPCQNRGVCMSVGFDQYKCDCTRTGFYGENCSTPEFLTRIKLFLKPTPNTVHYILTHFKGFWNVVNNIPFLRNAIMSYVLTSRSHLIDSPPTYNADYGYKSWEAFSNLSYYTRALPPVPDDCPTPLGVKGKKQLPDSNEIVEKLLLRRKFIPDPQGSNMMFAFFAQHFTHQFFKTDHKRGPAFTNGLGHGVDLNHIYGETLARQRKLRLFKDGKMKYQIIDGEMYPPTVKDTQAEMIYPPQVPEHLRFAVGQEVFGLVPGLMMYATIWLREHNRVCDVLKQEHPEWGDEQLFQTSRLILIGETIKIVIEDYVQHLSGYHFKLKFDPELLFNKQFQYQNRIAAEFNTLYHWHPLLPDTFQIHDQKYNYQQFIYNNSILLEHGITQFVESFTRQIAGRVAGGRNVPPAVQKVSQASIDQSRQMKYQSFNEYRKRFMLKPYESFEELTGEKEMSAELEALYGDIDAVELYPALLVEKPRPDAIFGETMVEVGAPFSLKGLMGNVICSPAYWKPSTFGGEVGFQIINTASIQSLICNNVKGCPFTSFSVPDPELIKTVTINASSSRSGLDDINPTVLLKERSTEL
Chain of PLA2 isolated from bee venom (P00630 34-167 limits assumed): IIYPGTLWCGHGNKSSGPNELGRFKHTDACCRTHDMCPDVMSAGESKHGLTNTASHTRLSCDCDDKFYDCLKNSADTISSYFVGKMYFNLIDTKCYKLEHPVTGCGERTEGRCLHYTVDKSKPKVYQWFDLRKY

In [1] (Homo sapiens, Chondrocyte, DA 500 micromolar final, IL-1β 500 pg/mL, 48 h), `CCCCCCCCCC(=O)O` [DA, decanoic acid] had an inhibition at 500 µM of 100%. Besides, in data set [1] (p-value≤0.05 versus medium controls), the “final concentration at which significant inhibition of PGE2 release was observed” value was 6 µM. In data set [2], this molecule came in with an inhibition at 25 µM of 62.4%. Also, the “effect on MCP1” value in data set [3] was “reduction in MCP1 in a dose dependent manner”. Moreover, the “increase of DA potency by 100 picomolar Dex” value in [4] was 2.2 ×. Moreover, the 50% inhibitory concentration (IC50) in data set [4] (DA alone, IL-1β 0.5 ng/mL) came out at 19.4 µM; in [4] (DA in the presence of 100 picomolar Dex), 8.62 µM; in data set [5] (THP-1, DA alone, 0.02 to 1.8 millimolar, three independent experiments), 125 µM; in data set [5] (THP-1, DA with addition of 25 nanomolar Dex), 65 µM; in data set [5] (THP-1, repeated experiments comparing DA to sodium decanoate) it was 172 µM. In addition, in data set [4] (IL-1β 0.5 ng/mL), the “DA concentration above which PGE2 and PGD2 release was inhibited” value is on record as “above 1 micromolar”. Also, in data set [5], the “increased DA potency by 25 nanomolar Dex” value is 1.917 ×. Moreover, in [6], the SOX9 expression entry is “increased SOX9 transcription”. For the same molecule, the “secreted PGI2 levels” value in data set [7] is “decreases secreted PGI2 levels”. For the same molecule, the “inhibition of COX-2 activity” value in data set [8] is “no observed inhibition”. In [9], the PLA2 activity inhibition entry is given as “no significant signs of PLA2 activity inhibition”. Moreover, in data set [10] (200 nanomolar DA or 500 nanograms/milliliter IL-1RA, IL-1β 1 nanogram/milliliter), the “PGE2 release after pretreatment (5 minutes, 1 hour, or 2 hours) then IL-1β 10 minutes or 1 hour” value is reported as “blocked the low-level activation”. Also, the “intracellular versus secreted PGE2” value in data set [10] (IL-1β 1 ng/ml, 6 hours) was “causes PGE2 to build up intracellularly instead of getting secreted”. Further, the PGE2 concentration result in [10] (measured at hour three, IL-1β 1 ng/mL) is on record as “less than 5000 pg/ml”. In addition, the “AA concentration normalized to total protein” value in data set [11] is listed as “lower than that of the control with IL-1β”. Moreover, in data set [12], the Col2a1 regulation was found to be 26 fold. Further, in data set [13], the MMP13 regulation is recorded as 1.12 fold. Moreover, in [14], the “pKa (negative log of acid dissociation constant)” value is recorded as “about 4.9”.

Take `N[C@@H](Cc1c[nH]c2ccccc12)C(=O)O` [Try, tryptophan]: in data set [12], the Col2a1 regulation is listed as −1.36 fold. The MMP13 regulation in [13] is recorded as −3.32 fold. Moreover, the “Observed Relative expression of MMP13” value in [15] was −2.6 fold. In data set [16], the “Observed Relative expression of Col2a1” value is reported as −1.4 fold.

Usually inhibition stands for the change of the read-out against control, counted positive when it falls. Low values mean a response near the control, high ones a response far below the control. For orientation: IC50 means the point on the concentration scale where inhibition reaches its midpoint.
